# Laboratory results reported in patent US10428013B2, “Amide compound, preparation method and uses thereof” (Shanghai Institute of Phamaceutical Industry, priority 2011, dated 2019).
# Tested on: Hyperlipemia Model of SD Rat
# Assay: Screening in the hyperlipemia model of SD rat (fat emulsion by gavage; serum lipids)
# Type: in vivo
# Details: hyperlipemia SD rats, 40 mg/kg, dosed 21 days, X ± SD
# Description: Materials and Methods for Screening with the Compounds Prepared in Experiment 1 to 21 in the Hyperlipemia Model of SD Rat
# SD rats, male, 150-180 g, supplied by Shanghai Slaccas Laboratory Animal Company Limited.
# Preparation of fat emulsion: 500 g lard oil was weighed and placed into a vessel, heated for melting, and upon heating up to the temperature of 100° C., 200 g cholesterol was added and fully dissolved, then 20 g propylthiouracil was added. After full stirring and dissolving, 500 ml Tween 80 was added to give an oil phase. Meanwhile, 600 ml distilled water and 400 ml 1,2-propylene glycol were heated to 60° C. in water bath, and then 40 g sodium deoxycholate was added with stirring, until full dissolution, to give an aqueous phase. The aqueous phase was added into the oil phase and fully and uniformly mixed, to prepare the fat emulsion.
# Formulation of the solution for the compounds: an appropriate amount of compounds was triturated with appropriate amount of Tween 80 for homogeneous dispersion, and then sufficient CMC-Na solution was added and fully triturated, suspended to give the solution for the compounds.
# The animals were fed for acclimation for 3 days, with 8 animals as blank control (Control) according to weight, and the rest was subject to intragastric administration of fat emulsion at 1 ml/100 g weight at A.M. 9:00-11:00 daily for continuous 2 weeks; the animals were fasted for 12 hours, and had 1 ml blood sampled at orbital cavity, which was measured with the Hitachi Automatic Biochemical Analyzer 7080 for serum cholesterol (CHO), triglyceride (TO), low-density lipoprotein (LDL-C) and high-density lipoprotein (HDL-C), with the animals having CHO of 4-7 mmol/L for experiment.
# The animals dosed with fat emulsion for 2 weeks were divided into model group (Model), simvastatin group (Sim, 10 mg/kg) and compound group (40 mg/kg) according to weight, and continued to receive intragastric administration with fat emulsion; at the same time, the dosed group was administered with respective amount of drug, and the model group was administered with equal volume of solvent. Fat emulsion was dosed by gavage at A.M., and drug was dosed at P.M. The animals were weighed at Monday, and were observed. The animals were dosed for continuous 21 days, and fasted for 12 hours, with 1 ml blood sampling at orbital cavity. The liver was exposed and observed for pathologic condition; after slicing and weighing, it was fixed into the 4% formaldehyde solution for pathologic examination.
# The Hitachi Automatic Biochemical Analyzer 7080 was used to measure serum cholesterol (CHO), triglyceride (TG), low-density lipoprotein (LDL-C) and high-density lipoprotein (HDL-C).
# Laboratory data were expressed as X±SD (Standard Deviation), and comparison between groups was carried out by t-testing.
SMILES,CHO1 Concentration (serum cholesterol) [mmol/L],HDL-C Concentration (serum high-density lipoprotein) [mmol/L],LDL-C Concentration (serum low-density lipoprotein) [mmol/L],TG Concentration (serum triglyceride) [mmol/L]
CC(C)(Oc1ccc(CCNC(=O)c2ccc(Cl)cc2)cc1)C(=O)NCC(=O)c1ccc(O)cc1 [Compound 01],14.84 ± 1.06,1.56 ± 0.25,13.90 ± 1.23,0.66 ± 0.13
CC(C)(Oc1ccc(CCNC(=O)c2ccc(Cl)cc2)cc1)C(=O)NCC(=O)c1ccc(OC(=O)C(C)(C)Oc2ccc(CCNC(=O)c3ccc(Cl)cc3)cc2)cc1 [Compound 02],17.29 ± 3.23,1.68 ± 0.38,16.01 ± 2.99,0.68 ± 0.18
CC(C)(Oc1ccc(C(=O)c2ccc(Cl)cc2)cc1)C(=O)NCC(=O)c1ccc(O)cc1 [Compound 03],12.63 ± 2.77,1.54 ± 0.20,11.11 ± 2.45,0.99 ± 0.18
CC(C)(Oc1ccc(C(=O)c2ccc(Cl)cc2)cc1)C(=O)NCC(=O)c1ccc(OC(=O)C(C)(C)Oc2ccc(C(=O)c3ccc(Cl)cc3)cc2)cc1 [Compound 04],10.02 ± 1.80,1.82 ± 0.19,9.84 ± 1.37,1.15 ± 0.12
Cc1ccc(C)c(OCCCC(C)(C)C(=O)NCC(=O)c2ccc(O)cc2)c1 [Compound 05],15.30 ± 2.45,1.54 ± 0.24,14.38 ± 2.12,1.31 ± 0.15
Cc1ccc(C)c(OCCCC(C)(C)C(=O)NCC(=O)c2ccc(OC(=O)C(C)(C)CCCOc3cc(C)ccc3C)cc2)c1 [Compound 06],16.37 ± 2.26,1.49 ± 0.29,15.78 ± 2.00,1.53 ± 0.16
CC(C)(Oc1ccc(C2CC2(Cl)Cl)cc1)C(=O)NCC(=O)c1ccc(O)cc1 (stereo not shown) [Compound 07],14.99 ± 1.45,1.74 ± 0.46,13.90 ± 1.21,1.39 ± 0.16
CC(C)(Oc1ccc(C2CC2(Cl)Cl)cc1)C(=O)NCC(=O)c1ccc(OC(=O)C(C)(C)Oc2ccc(C3CC3(Cl)Cl)cc2)cc1 (stereo not shown) [Compound 08],12.92 ± 2.10,2.12 ± 0.27,11.41 ± 1.90,0.83 ± 0.13
CC(C)(Oc1ccc(Cl)cc1)C(=O)NCC(=O)c1ccc(O)cc1 [Compound 09],13.64 ± 2.14,2.18 ± 0.22,11.64 ± 2.00,0.95 ± 0.14
CC(C)(Oc1ccc(Cl)cc1)C(=O)NCC(=O)c1ccc(OC(=O)C(C)(C)Oc2ccc(Cl)cc2)cc1 [Compound 10],9.73 ± 1.79,2.66 ± 0.24,8.27 ± 1.46,0.94 ± 0.15
CCC(C)(Oc1ccc(C2(c3ccc(OC(C)(CC)C(=O)NCC(=O)c4ccc(O)cc4)cc3)CCCCC2)cc1)C(=O)O (stereo not shown) [Compound 11],12.18 ± 3.12,1.79 ± 0.34,11.37 ± 3.66,1.13 ± 0.14
CCC(C)(Oc1ccc(C2(c3ccc(OC(C)(CC)C(=O)NCC(=O)c4ccc(O)cc4)cc3)CCCCC2)cc1)C(=O)NCC(=O)c1ccc(O)cc1 (stereo not shown) [Compound 12],20.17 ± 1.27,1.895 ± 0.39,19.31 ± 1.52,0.75 ± 0.25
CCC(CC)(CCCOc1cc(C)cc(C)c1)C(=O)NCC(=O)c1cccc(O)c1 [Compound 13],20.17 ± 1.27,1.895 ± 0.39,19.31 ± 1.52,0.75 ± 0.25
COc1ccc(OCCCC(C)(C)C(=O)NCC(=O)c2ccc(O)c(C)c2)cc1C [Compound 14],20.66 ± 3.23,2.25 ± 0.22,20.78 ± 3.46,0.99 ± 0.28
Cc1cc(C(=O)CCNC(=O)C(C)(CCCOc2cc(Cl)ccc2C)C(C)C)ccc1O (stereo not shown) [Compound 15],15.00 ± 2.75,1.89 ± 0.26,14.04 ± 3.12,1.34 ± 0.48
CCC(CCCOc1cc(C)ccc1C)C(=O)N(C)CC(=O)c1cc(C)cc(O)c1 (stereo not shown) [Compound 16],9.48 ± 1.27,1.32 ± 0.39,7.13 ± 1.52,0.78 ± 0.25
Cc1ccc(C)c(OCCCC(C)(C)C(=O)NCC(=N)c2ccc(O)c(Cl)c2)c1 [Compound 17],10.54 ± 3.23,1.82 ± 0.22,8.13 ± 3.46,0.88 ± 0.28
Cc1ccc(C)c(OCCCC(C)(C)C(=O)NC2CCC(C(=S)c3ccc(O)cc3)CC2)c1 (stereo not shown) [Compound 18],15.04 ± 2.73,1.56 ± 0.51,13.47 ± 3.68,1.25 ± 0.33
Cc1ccc(C)c(OCCCC(C)(C)C(=O)NCC(=O)c2cc(O)cc(O)c2)c1 [Compound 19],11.12 ± 1.01,1.36 ± 0.66,10.76 ± 1.25,0.94 ± 0.06

# Tested on: Cholelithiasis Model of Golden Hamster
# Assay: Screening in the cholelithiasis model of golden hamster (biochemical measurement of bile)
# Type: in vivo, golden hamsters
# Details: 40 mg/kg, dosed 45 days, X ± SD
# Description: Screening with the Compounds Prepared in Experiment 1 to 21 in the Cholelithiasis Model of Golden Hamster
# 68 male golden hamsters, 50-60 g, supplied by Shanghai Slaccas Laboratory Animal Company Limited.
# The animals were fed for acclimation for 3 days, with 8 animals as blank control (Control) according to weight. The control was dosed with normal rat feedstuff, and the rest was dosed with feedstuff leading to cholelithiasis (sucrose 32.1%, cheese 64.2%, cholesterol 0.2%, salt 3%, vitamin B1 […], concentrated fish liver oil 0.4%). The animals were fed for acclimation for another 7 days, and divided into model group (Model), simvastatin group (Sim, 10 mg/kg), Ursodesoxycholic acid group (UDCA, 40 mg/kg), and compound group, n=6/group.
# […] 2:00-3:00 daily. The animals were weighed at Monday, and observed for hair color, stool, and variation of activation level.
# The animals were dosed for continuous 45 days and then fasted for 12 hours; were anesthetized with 30 mg/kg sodium secobarbital via intraperitoneal injection; had 1 ml blood sampled via abdominal aorta; had gallbladder exposed, with an orifice on the gallbladder being clamped by the ophthalmological pliers and bile in the gallbladder being sucked with 1 ml syringe.
# The Hitachi Automatic Biochemical Analyzer 7080 was used to measure cholesterol (CHO), total total bilirubin (TBIL), total bile acid (TBA) and total protein (TP) in bile.
# Laboratory data was expressed as X±SD, and comparison of measurement data between groups was carried out by t-testing, with non-parametric testing for enumeration data.
SMILES,Cholesterol (CHO) in bile [mmol/L],Total bile acid (TBA) in bile [mmol/L],Total protein (TP) in bile [g/L],Total total bilirubin (TBIL) in bile [µmol/L]
CCC(CCCOc1cc(C)ccc1C)C(=O)N(C)CC(=O)c1cc(C)cc(O)c1 (stereo not shown) [Compound 16],0.97 ± 0.62,19.74 ± 12.14,40.70 ± 26.17,55.0 ± 29.38
"C[C@H](CCC(=O)O)[C@H]1CC[C@H]2[C@@H]3[C@@H](O)C[C@@H]4C[C@H](O)CC[C@]4(C)[C@H]3CC[C@]12C [Ursodesoxycholic acid, reference compound]",0.98 ± 0.47,12.23 ± 3.04,28.63 ± 10.37,89.4 ± 45.3

# Same assay, conditions: 80 mg/kg, dosed 45 days, X ± SD
SMILES,Cholesterol (CHO) in bile [mmol/L],Total bile acid (TBA) in bile [mmol/L],Total protein (TP) in bile [g/L],Total total bilirubin (TBIL) in bile [µmol/L]
CCC(C)(Oc1ccc(C2(c3ccc(OC(C)(CC)C(=O)NCC(=O)c4ccc(O)cc4)cc3)CCCCC2)cc1)C(=O)O (stereo not shown) [Compound 11],0.82 ± 0.58,17.46 ± 7.77,28.66 ± 8.48,48.9 ± 22.10
